Assay results taken from ChEMBL document CHEMBL4732242 (Eur J Med Chem, 2021).

Assays:
[1] = target: Dual specificity protein kinase CLK1 (Homo sapiens, UniProt P49759); experiment: Inhibition of human recombinant CLK1 using ERMRPRKRQGSVR substrate by radiometric scintillation assay
[2] = target: Dual specificity protein kinase CLK2 (Homo sapiens, UniProt P49760); experiment: Inhibition of human recombinant CLK2 using YRRAAVPPSPSLSR substrate by radiometric scintillation assay
[3] = target: Dual specificity protein kinase CLK3 (Homo sapiens, UniProt P49761); experiment: Inhibition of human full length recombinant CLK3 using ERMRPRKRQGSVR substrate by radiometric scintillation assay
Dual specificity protein kinase CLK3, sequence (P49761 whole entry): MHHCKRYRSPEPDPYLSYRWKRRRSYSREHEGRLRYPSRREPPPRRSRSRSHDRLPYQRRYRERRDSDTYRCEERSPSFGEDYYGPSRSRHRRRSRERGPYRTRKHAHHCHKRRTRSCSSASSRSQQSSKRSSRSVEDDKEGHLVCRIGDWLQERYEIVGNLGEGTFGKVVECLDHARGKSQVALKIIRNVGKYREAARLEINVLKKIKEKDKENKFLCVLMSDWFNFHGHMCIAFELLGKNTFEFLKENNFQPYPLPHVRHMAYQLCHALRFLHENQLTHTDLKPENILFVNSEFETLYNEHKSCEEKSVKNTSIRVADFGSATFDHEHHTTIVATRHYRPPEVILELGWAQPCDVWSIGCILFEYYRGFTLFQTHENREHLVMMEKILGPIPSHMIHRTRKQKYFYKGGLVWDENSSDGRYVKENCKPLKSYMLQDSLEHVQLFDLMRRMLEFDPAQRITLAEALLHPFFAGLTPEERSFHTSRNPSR

[4] = target: Dual specificity protein kinase CLK4 (Homo sapiens, UniProt Q9HAZ1); experiment: Inhibition of human recombinant CLK4 using YRRAAVPPSPSLS substrate by radiometric scintillation assay
Dual specificity protein kinase CLK4, sequence (Q9HAZ1 whole entry): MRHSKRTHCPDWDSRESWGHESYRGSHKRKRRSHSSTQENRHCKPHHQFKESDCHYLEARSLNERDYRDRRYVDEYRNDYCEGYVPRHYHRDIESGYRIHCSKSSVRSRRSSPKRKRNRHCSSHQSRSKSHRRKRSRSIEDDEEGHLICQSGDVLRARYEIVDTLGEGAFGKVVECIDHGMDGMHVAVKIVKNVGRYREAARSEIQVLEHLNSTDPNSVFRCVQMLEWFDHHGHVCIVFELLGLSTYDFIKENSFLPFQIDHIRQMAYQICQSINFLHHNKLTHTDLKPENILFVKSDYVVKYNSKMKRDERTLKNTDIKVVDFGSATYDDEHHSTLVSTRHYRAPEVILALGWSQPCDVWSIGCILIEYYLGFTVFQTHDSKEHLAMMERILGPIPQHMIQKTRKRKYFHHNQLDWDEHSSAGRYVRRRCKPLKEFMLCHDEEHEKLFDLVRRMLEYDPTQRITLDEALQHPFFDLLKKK

[5] = target: Dual specificity tyrosine-phosphorylation-regulated kinase 1A (Homo sapiens, UniProt Q13627); experiment: Inhibition of human full length recombinant DYRK1A using RRRFRPASPLRGPP substrate by radiometric scintillation assay
[6] = target: Dual specificity tyrosine-phosphorylation-regulated kinase 1B (Homo sapiens, UniProt Q9Y463); experiment: Inhibition of human full length recombinant DYRK1B using RRRFRPASPLRGPP substrate by radiometric scintillation assay
Dual specificity tyrosine-phosphorylation-regulated kinase 1B, sequence (Q9Y463 whole entry): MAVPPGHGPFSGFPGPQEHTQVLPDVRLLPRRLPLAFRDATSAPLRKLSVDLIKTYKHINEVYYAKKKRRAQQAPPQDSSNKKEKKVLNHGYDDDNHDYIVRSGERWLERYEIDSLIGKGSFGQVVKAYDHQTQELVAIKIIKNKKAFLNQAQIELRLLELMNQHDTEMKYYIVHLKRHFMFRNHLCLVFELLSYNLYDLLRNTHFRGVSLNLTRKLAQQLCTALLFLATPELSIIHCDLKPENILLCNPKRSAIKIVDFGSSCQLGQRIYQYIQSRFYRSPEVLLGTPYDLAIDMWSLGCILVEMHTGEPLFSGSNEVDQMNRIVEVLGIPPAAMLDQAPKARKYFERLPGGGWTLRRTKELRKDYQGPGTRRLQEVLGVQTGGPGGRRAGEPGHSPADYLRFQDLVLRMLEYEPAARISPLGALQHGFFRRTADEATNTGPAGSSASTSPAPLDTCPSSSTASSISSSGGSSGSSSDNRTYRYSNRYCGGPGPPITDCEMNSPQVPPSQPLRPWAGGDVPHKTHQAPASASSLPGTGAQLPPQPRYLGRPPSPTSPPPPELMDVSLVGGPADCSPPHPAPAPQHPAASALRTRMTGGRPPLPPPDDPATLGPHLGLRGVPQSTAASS

[7] = target: T1, Dual specificity tyrosine-phosphorylation-regulated kinase 2 (Homo sapiens, UniProt Q92630); experiment: Inhibition of human full length recombinant DYRK2 using casein substrate by radiometric scintillation assay
T1 sequence (Q92630 whole entry): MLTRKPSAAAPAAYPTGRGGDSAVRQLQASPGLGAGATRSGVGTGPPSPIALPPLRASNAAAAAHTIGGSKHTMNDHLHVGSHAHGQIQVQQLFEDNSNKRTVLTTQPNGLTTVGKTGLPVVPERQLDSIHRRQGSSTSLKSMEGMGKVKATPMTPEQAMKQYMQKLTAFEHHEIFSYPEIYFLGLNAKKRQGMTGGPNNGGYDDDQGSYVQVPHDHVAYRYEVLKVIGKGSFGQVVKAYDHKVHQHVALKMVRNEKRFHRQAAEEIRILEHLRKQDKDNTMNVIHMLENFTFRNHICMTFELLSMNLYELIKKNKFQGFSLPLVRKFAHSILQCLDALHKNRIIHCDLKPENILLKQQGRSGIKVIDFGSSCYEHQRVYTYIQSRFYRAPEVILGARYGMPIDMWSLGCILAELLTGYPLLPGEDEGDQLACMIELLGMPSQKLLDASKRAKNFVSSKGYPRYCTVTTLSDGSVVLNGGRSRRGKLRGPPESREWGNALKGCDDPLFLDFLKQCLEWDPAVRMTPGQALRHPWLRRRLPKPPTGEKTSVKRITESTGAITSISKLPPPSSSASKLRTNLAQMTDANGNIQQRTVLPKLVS

[8] = target: Homeodomain-interacting protein kinase 1 (Homo sapiens, UniProt Q86Z02); experiment: Inhibition of human recombinant HIPK1 using myelin substrate by radiometric scintillation assay
Homeodomain-interacting protein kinase 1, sequence (Q86Z02 whole entry): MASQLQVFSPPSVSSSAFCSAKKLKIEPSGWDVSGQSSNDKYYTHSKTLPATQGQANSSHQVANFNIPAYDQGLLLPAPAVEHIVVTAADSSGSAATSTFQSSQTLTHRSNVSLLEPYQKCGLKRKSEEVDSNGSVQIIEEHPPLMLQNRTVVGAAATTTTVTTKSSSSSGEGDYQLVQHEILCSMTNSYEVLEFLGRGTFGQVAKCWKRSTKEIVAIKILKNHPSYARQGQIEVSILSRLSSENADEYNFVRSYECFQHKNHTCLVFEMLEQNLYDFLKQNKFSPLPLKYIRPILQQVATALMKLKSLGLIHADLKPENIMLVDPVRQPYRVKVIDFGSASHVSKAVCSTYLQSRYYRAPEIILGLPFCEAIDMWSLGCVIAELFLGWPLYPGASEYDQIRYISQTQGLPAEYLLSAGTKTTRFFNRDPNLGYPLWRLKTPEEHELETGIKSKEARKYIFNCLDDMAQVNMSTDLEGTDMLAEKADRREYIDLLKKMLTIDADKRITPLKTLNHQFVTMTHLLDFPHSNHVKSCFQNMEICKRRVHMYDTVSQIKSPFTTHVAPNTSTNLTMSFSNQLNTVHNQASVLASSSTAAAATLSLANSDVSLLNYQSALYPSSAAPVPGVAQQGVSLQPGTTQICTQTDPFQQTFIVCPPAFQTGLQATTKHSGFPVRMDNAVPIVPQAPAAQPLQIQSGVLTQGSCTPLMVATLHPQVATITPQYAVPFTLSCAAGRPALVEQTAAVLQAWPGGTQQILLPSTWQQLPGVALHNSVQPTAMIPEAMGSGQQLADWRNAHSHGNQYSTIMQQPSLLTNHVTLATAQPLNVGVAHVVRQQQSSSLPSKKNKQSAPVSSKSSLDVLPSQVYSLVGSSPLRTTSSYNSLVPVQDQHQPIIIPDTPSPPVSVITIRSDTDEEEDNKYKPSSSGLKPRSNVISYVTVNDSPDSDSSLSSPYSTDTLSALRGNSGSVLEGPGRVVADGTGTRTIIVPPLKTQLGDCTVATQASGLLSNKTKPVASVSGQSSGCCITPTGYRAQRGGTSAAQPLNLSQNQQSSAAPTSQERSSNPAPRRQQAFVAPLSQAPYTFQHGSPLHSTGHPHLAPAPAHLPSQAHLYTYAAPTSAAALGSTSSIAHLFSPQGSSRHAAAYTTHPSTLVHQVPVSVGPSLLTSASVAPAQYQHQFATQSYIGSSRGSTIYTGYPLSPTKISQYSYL

[9] = target: Homeodomain-interacting protein kinase 2 (Homo sapiens, UniProt Q9H2X6); experiment: Inhibition of human recombinant HIPK2 using myelin substrate by radiometric scintillation assay
[10] = target: Homeodomain-interacting protein kinase 3 (Homo sapiens, UniProt Q9H422); experiment: Inhibition of human recombinant HIPK3 using myelin substrate by radiometric scintillation assay
Homeodomain-interacting protein kinase 3, sequence (Q9H422 whole entry): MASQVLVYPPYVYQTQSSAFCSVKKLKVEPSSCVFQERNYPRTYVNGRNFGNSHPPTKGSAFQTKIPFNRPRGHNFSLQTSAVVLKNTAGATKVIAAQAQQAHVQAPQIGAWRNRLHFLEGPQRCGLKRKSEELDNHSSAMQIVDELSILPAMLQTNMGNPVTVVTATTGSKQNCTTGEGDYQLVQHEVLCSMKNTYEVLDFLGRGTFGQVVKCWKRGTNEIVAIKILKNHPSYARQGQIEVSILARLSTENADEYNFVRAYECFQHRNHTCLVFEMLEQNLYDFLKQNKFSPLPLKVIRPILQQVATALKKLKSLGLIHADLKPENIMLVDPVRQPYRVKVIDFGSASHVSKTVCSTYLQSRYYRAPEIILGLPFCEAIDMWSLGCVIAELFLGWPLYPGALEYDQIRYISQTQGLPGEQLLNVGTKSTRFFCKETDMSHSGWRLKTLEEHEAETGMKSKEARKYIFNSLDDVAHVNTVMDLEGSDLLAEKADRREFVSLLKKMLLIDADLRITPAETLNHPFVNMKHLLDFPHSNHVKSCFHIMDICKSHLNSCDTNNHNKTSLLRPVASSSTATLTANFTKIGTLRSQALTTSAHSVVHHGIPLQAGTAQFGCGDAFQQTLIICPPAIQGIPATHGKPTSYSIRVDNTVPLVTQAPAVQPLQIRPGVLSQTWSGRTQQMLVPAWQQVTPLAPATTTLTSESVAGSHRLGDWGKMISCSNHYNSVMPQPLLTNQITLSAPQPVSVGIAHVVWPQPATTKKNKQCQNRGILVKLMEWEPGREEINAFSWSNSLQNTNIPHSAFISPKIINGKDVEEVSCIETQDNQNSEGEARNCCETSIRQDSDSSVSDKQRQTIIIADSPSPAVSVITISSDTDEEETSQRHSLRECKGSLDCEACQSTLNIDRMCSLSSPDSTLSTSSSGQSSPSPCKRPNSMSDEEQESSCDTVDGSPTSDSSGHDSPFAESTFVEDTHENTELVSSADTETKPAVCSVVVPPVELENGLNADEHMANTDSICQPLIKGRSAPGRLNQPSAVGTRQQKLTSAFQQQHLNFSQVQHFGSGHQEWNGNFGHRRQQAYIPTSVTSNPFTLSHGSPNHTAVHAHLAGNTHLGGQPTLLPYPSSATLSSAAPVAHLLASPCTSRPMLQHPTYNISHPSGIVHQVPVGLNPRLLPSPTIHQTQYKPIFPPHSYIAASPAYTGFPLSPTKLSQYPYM

Dual specificity protein kinase CLK1, sequence (P49759 whole entry): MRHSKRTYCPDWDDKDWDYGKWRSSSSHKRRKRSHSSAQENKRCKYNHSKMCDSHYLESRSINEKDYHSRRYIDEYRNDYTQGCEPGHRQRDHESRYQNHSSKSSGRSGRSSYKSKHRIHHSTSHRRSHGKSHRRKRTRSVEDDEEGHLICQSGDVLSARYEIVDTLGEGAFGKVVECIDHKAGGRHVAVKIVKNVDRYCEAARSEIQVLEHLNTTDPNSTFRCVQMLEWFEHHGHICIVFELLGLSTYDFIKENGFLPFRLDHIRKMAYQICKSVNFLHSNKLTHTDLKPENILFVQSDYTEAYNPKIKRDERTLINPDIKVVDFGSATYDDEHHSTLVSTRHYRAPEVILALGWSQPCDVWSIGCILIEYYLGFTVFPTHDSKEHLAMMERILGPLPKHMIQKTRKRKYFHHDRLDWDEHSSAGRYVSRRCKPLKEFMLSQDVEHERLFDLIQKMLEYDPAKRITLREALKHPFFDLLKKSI
Dual specificity protein kinase CLK2, sequence (P49760 whole entry): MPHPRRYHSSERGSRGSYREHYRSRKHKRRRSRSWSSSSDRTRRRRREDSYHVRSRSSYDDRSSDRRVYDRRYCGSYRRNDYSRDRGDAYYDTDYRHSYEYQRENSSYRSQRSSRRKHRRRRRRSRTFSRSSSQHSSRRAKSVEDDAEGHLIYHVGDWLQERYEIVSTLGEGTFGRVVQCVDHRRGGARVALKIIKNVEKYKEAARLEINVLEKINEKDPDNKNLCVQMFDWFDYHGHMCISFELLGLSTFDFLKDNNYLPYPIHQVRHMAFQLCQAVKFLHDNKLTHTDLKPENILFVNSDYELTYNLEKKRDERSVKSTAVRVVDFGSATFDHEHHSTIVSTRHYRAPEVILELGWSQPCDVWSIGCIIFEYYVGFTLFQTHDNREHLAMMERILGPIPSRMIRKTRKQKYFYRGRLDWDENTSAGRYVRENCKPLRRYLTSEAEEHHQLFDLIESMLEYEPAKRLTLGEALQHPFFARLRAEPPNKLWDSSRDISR

SMILES	IC50 [1]	IC50 [2]	IC50 [3]	IC50 [4]	IC50 [5]	IC50 [6]	IC50 [7]	IC50 [8]	IC50 [9]	IC50 [10]
CC1(c2ccc(-c3coc4ccc(-c5cn[nH]c5)nc34)cc2)CC1	308 nM	155 nM	> 3000 nM	320 nM	> 3000 nM	> 3000 nM	> 3000 nM	220 nM	68 nM	441 nM
CN1CCC(c2cccc(-c3coc4ccc(-c5cnn(C)c5)nc34)c2)CC1	169 nM	667 nM	> 3000 nM	116 nM	568 nM	> 3000 nM	> 3000 nM	354 nM	260 nM	692 nM
C=C(C)c1ccc(-c2coc3ccc(-c4cn[nH]c4)nc23)cc1	68 nM	40 nM	> 3000 nM	42 nM	1370 nM	> 3000 nM	> 3000 nM	51 nM	41 nM	65 nM
COc1ccc(-c2coc3ccc(-c4cn[nH]c4)nc23)cc1		39 nM		46 nM			1000 nM	33 nM	15 nM	66 nM
c1ccc2cc(-c3coc4ccc(-c5cn[nH]c5)nc34)ccc2c1		25 nM		31 nM			1430 nM	16 nM	5 nM	38 nM
c1n[nH]cc1-c1ccc2occ(-c3ccc(C45CC6CC(CC(C6)C4)C5)cc3)c2n1	> 3000 nM	> 3000 nM	> 3000 nM	> 3000 nM	> 3000 nM	> 3000 nM	> 3000 nM	> 3000 nM	> 3000 nM	> 3000 nM
Cn1cc(-c2ccc3occ(-c4cccc(-c5cc[nH]n5)c4)c3n2)cn1	14 nM	16 nM	1640 nM	15 nM	116 nM	1890 nM	> 3000 nM	125 nM	30 nM	128 nM
c1n[nH]cc1-c1ccc2occ(-c3ccc(C4CCCCC4)cc3)c2n1	2110 nM	> 3000 nM	> 3000 nM	776 nM	> 3000 nM	> 3000 nM	> 3000 nM	> 3000 nM	654 nM	> 3000 nM
c1ccc(-c2ccc(-c3coc4ccc(-c5cn[nH]c5)nc34)cc2)cc1	114 nM	529 nM	> 3000 nM	126 nM	> 3000 nM	> 3000 nM	> 3000 nM	278 nM	172 nM	807 nM
c1ccc(Cc2ccc(-c3coc4ccc(-c5cn[nH]c5)nc34)cc2)cc1	450 nM	1840 nM	> 3000 nM	355 nM	> 3000 nM	> 3000 nM	> 3000 nM	921 nM	484 nM	> 3000 nM
c1ccc(-c2coc3ccc(-c4cn[nH]c4)nc23)cc1		72 nM		41 nM			1150 nM	62 nM	42 nM	128 nM
Cn1cc(-c2coc3ccc(-c4cn[nH]c4)nc23)cn1		176 nM		45 nM			1210 nM	235 nM	28 nM	
Cn1cc(-c2ccc3occ(-c4cccc(C5CCNCC5)c4)c3n2)cn1	59 nM	90 nM	> 3000 nM	52 nM	324 nM	> 3000 nM	> 3000 nM	264 nM	179 nM	300 nM
CC(C)Cc1ccc(-c2coc3ccc(-c4cn[nH]c4)nc23)cc1	671 nM	827 nM	> 3000 nM	896 nM	> 3000 nM	> 3000 nM	> 3000 nM	685 nM	501 nM	1230 nM
